Measurements: ChEMBL document CHEMBL1201862, “PubChem BioAssay data set” (2004)
Active and inactive are the calls of the source.

Columns and labels:
[1] = target: Glucose-6-phosphate 1-dehydrogenase (Homo sapiens, UniProt P11413); assay: human G6PD enzyme inhibitors, dose response, selectivity assay for P. falciparum G6PD inhibitor project, biochemical, fluorescence (AID 504792); format: functional
[2] = A Cell Based Secondary Assay To Explore Cytotoxicity of Compounds that Sensitize Mycobacterium Tuberculosis to Beta-Lactam Antibiotics.; format: functional
[3] = target: T1, Heat shock factor protein 1 (Mus musculus, UniProt P38532); assay: inhibition of MG132-induced HSE-luciferase signal, confirmation, cell-based, NIH3T3, luminescence, dose retest (AID 2382); format: functional;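 also: NIH3T3 fibroblasts with HSF1-driven luciferase reporter stressed by proteasome inhibitor MG132; luminescence from HSF1-driven luciferase expression after 8 hours of MG132 stress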
T1 sequence (P38532 whole entry): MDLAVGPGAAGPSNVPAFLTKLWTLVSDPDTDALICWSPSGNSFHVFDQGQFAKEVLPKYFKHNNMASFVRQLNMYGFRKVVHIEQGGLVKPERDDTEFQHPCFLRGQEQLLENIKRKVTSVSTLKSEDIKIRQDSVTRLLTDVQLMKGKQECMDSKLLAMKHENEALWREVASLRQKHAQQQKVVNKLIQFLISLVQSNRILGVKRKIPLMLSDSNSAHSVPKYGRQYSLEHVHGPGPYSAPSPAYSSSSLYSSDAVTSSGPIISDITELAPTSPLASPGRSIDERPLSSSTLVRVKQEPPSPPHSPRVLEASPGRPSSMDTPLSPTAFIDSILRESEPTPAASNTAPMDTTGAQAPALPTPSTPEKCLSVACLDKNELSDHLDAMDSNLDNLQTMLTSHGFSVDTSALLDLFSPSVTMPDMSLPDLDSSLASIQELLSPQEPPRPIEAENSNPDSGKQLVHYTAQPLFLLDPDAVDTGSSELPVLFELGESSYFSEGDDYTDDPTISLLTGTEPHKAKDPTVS

[4] = growth suppression of PTEN-null colon cells, dose response, cell-based, HCT116 PTEN knockout (AID 1047); format: functional;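 also: HCT116 colon tumor cells with PTEN knocked out; cells exposed to compound for 60 hours before readout; potency for loss of cell viability measured by luminescence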
[5] = growth suppression of beta-catenin-knockout colon cells, dose response, cell-based, HCT116, human colon tumor (AID 1045); format: functional;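 also: HCT116 colon tumor cells with beta catenin knocked out; cells exposed to compound for 60 hours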
[6] = Shn3 3'UTR reporter inhibitors, dose response, cell-based, Clone20 osteoblasts, firefly luciferase, cherry-picked (AID 624132); format: functional;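 also: firefly luciferase luminescence from reporter carrying the Shn3 3'UTR in osteoblasts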
[7] = HepG2 cell cytotoxicity, dose response, cytotoxicity control for Shn3 inhibitor project, CellTiter-Glo, cherry-picked (AID 624134); format: functional, cell-based
[8] = control 3'UTR Renilla luciferase suppression, dose response, counter-screen for Shn3 inhibitor project, cell-based, Clone20-Shn3RL, cherry-picked (AID 624133); format: functional
[9] = HEp-2 cell cytotoxicity, dose response, cytotoxicity control for RSV inhibitor project, HTS (AID 2410); format: functional; conditions: human respiratory syncytial virus
[10] = target: T2, Corticotropin-releasing factor receptor 2/Corticotropin-releasing factor-binding protein (Homo sapiens, UniProt P24387+Q13324); assay: Dose Response confirmation of uHTS hits for small molecule antagonists of the CRF-binding protein and CRF-R2 receptor complex.; format: functional; conditions: read-out: IC50_Mean
T2 sequence (Q13324 whole entry): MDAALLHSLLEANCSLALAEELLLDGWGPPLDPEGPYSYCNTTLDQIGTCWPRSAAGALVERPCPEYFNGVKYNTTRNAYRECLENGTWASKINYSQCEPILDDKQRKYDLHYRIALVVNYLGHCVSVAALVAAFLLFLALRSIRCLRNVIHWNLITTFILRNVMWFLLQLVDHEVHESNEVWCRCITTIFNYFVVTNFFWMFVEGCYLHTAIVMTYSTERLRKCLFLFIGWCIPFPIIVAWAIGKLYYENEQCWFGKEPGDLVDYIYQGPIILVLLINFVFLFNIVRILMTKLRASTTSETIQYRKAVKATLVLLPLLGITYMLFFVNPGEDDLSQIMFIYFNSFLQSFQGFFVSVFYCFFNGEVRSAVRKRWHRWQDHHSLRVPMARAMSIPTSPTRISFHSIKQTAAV
T2 sequence (P24387 whole entry): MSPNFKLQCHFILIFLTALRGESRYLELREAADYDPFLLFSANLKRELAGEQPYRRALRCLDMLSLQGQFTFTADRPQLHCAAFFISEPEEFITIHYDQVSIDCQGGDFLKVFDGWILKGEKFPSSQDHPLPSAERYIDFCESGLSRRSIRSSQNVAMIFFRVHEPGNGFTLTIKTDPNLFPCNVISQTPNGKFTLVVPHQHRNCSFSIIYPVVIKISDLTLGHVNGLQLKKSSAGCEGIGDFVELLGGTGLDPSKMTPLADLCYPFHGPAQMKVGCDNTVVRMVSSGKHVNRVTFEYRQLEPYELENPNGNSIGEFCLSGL

[11] = target: T2, Corticotropin-releasing factor receptor 2/Corticotropin-releasing factor-binding protein; assay: activators of CRF receptor 2 with binding protein – uHTS hits, confirmation (AID 602473); format: functional; conditions: read-out: EC50_Mean
[12] = CRF-BP/CRF-R2 complex antagonists, dose response, cell-based, uHTS hits, 384-well (AID 651639); format: functional, Homo sapiens; conditions: read-out: IC50_Mean
[13] = target: T1, Heat shock factor protein 1; assay: HSF1 potentiators in luciferase reporter cells, confirmation, cell-based, NIH3T3, luminescence, dose retest (AID 435004); format: functional;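 also: stress induced by proteasome inhibitor MG132 added 30 min after compound; luciferase reporter driven by HSF1 response element in NIH3T3 cells; actives raise luminescence as potentiators of the MG132 stress response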
Large T antigen = Large T antigen (Simian virus 40, UniProt P03070); format: functional, Betapolyomavirus macacae;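 also: Confirmatory-stage PubChem screen for compounds that inhibit SV40 T antigen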
Sequence of Large T antigen (P03070 whole entry): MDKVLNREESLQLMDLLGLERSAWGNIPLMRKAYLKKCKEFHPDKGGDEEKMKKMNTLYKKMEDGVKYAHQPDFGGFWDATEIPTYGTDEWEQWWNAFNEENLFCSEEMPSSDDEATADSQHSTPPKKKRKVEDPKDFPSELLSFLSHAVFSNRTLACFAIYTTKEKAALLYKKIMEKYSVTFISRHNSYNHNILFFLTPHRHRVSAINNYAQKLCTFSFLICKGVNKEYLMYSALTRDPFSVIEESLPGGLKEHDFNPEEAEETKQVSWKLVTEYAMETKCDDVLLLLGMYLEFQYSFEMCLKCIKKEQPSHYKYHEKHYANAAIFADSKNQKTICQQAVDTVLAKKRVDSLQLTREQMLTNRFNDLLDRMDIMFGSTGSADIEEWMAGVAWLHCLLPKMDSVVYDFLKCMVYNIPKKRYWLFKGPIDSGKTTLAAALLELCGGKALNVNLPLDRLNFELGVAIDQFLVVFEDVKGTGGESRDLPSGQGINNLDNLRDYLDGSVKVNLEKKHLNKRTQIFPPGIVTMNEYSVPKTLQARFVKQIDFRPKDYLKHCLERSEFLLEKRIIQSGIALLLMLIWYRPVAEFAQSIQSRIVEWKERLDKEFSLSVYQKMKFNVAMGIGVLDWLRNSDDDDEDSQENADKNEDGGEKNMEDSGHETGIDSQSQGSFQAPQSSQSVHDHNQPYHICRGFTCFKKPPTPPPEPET

Genome polyprotein = Genome polyprotein (dengue virus type 2, UniProt P29990); assay: Dengue-2 NS5 methyltransferase inhibitors, primary screen, biochemical, confirmation dose response (AID 588689); format: functional
Sequence of Genome polyprotein (P29990 2492-3391 limits assumed): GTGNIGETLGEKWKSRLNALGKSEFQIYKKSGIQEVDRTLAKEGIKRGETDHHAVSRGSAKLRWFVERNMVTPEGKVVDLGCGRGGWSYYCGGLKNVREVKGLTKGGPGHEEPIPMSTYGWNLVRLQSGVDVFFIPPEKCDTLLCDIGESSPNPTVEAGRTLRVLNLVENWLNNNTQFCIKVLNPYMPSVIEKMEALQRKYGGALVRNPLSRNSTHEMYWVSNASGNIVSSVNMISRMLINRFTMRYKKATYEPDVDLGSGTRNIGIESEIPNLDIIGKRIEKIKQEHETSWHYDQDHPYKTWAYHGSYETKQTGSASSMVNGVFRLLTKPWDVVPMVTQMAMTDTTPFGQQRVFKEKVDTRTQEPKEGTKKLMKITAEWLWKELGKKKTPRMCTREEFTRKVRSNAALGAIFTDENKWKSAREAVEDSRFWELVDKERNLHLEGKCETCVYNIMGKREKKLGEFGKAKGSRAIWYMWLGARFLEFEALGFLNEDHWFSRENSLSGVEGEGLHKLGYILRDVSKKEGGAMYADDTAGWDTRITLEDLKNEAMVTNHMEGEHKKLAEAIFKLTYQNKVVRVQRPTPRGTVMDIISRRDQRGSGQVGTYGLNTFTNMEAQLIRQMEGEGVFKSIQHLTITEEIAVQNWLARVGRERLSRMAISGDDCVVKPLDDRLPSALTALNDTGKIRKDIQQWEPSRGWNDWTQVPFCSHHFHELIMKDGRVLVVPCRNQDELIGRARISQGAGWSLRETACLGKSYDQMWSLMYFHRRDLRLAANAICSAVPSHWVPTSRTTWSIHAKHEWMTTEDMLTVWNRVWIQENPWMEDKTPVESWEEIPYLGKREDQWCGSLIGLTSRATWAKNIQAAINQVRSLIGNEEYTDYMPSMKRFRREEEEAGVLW

[14] = target: T3, Carboxy-terminal domain RNA polymerase II polypeptide A small phosphatase 1 (Homo sapiens, UniProt Q9GZU7); assay: inhibitors of CTDSP1, concentration-response testing, biochemical assay, absorbance-based, actives from ultra-high-throughput screening (AID 540297); format: functional
T3 sequence (Q9GZU7 whole entry): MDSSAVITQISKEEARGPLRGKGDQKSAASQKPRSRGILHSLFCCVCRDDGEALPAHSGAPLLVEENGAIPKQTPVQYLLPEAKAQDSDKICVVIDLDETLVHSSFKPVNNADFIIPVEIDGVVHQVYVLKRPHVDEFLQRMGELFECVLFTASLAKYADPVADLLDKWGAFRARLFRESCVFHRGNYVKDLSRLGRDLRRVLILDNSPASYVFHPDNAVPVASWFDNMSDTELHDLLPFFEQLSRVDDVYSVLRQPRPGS

[15] = inhibitors of HIV Env-driven cell fusion, dose response, cherry-pick (AID 652057); format: functional, cell-based
[16] = inhibitors of clade B AD8 Env fusion, dose response, cell-based, cherry-pick (AID 652062); format: functional;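 also: luciferase signal from cell-cell fusion driven by HIV-1 clade B AD8 Env; potency is for inhibitors of fusion seen as a drop in luminescence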
P388/ADR = assay: cells; format: functional; conditions: Mus musculus
SN12K1 = assay: cells; format: functional; conditions: Homo sapiens
P388 = assay: cells; format: functional; conditions: Mus musculus
[17] = target: T4, Calpain-2 catalytic subunit (Sus scrofa, UniProt P43367); assay: pig calpain II inhibitor potency, dose response, biochemical, fluorogenic peptide substrate (AID 1420); format: functional
T4 sequence (P43367 whole entry): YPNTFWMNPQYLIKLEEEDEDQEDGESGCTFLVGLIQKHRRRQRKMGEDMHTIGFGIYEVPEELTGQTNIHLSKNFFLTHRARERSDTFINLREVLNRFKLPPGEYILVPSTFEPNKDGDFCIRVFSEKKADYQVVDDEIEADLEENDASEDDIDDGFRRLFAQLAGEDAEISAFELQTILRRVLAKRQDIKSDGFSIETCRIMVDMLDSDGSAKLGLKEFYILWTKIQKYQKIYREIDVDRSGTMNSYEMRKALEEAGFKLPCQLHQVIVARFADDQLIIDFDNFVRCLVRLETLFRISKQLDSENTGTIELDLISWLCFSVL

cells = format: functional

Sequence of Glucose-6-phosphate 1-dehydrogenase (P11413 whole entry): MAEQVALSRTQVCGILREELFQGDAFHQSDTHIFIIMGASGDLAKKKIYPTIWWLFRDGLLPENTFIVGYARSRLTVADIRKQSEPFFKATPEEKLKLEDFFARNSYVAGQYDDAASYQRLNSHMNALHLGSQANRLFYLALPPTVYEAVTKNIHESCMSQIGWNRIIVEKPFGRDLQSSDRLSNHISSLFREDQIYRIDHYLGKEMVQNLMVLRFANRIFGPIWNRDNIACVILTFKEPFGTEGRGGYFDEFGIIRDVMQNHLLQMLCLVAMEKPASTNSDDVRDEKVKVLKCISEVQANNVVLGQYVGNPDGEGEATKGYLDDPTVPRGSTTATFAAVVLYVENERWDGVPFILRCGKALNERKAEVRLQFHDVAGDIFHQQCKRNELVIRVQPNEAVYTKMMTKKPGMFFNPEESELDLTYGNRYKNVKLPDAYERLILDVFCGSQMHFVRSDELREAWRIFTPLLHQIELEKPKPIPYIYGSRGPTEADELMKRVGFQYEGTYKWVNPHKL

CCOC(=O)c1sc(NC(=O)CSc2nnc(Cc3ccccc3)o2)c(C#N)c1C
IC50 [1]: > 80 µM (inactive)

CC(/C=C(\NC(=O)c1ccccc1)C(=O)N=Nc1c(O)[nH]c2ccc(C)cc12)=C\c1ccccc1
CC50 [2]: 33.7 µM (active)
EC50 [3]: 16.1 µM (active)

CCc1ccc(OCC(=O)NC(N=C(S)Nc2ccc(Cl)cc2)C(Cl)(Cl)Cl)cc1 (centres undefined)
EC50 [4]: 13.8 µM (active)
EC50 [5]: 13.6 µM (active)
AC50 [6]: 4.96 µM (active)
AC50 [7]: 18.1 µM (active)
AC50 [8]: 26.1 µM (active)

O=C(Nc1cccc2ccccc12)N1CCCN(c2c(Cl)cncc2Cl)CC1
CC50 [2]: > 40 µM (active)

O=C(c1ccc(-c2ccccc2Cl)s1)N1CCOCC1
CC50 [9]: > 50 µM (active)

Cc1nn(-c2cc(C(F)(F)F)ccc2Cl)c2nc(C(Cl)(Cl)Cl)nc(O)c12
IC50 [10]: 5.2 µM (active)
EC50 [11]: > 53 µM (inactive)
IC50 [12]: 11.1 µM (active)

O=C(CBr)c1ccc([N+](=O)[O-])c(CS(=O)(=O)c2ccc(Cl)cc2)c1
IC50 [1]: > 80 µM (inactive)
EC50 [13]: 31.9 µM (active)

Cn1c(=S)[nH]c2sc3c(c2c1=O)CCC(C(C)(C)C)C3 (centres undefined)
CC50 [2]: 10.7 µM (active)

CCCCn1c(CN2CCN(c3ccc(F)cc3)CC2)nc2c1c(=O)n(C)c(=O)n2C
AC50 [6]: 2.73 µM (active)
AC50 [7]: 5.36 µM (active)
AC50 [8]: 23 µM (active)

CC1CCCCC1NC(=O)CCCCCn1c(=S)[nH]c2ccsc2c1=O (centres undefined)
IC50 [10]: < 0.368 µM (active)
EC50 [11]: > 53 µM (inactive)
IC50 [12]: > 20 µM (inactive)

CC(C)Cc1csc(NC(=O)c2ccc(Cl)cc2)c1C(=O)O
IC50 [10]: 5.06 µM (active)
EC50 [11]: 25.8 µM (active)
IC50 [12]: 17.8 µM (active)

C[C@H](NC(N)=O)C(=O)Nc1ccc(N2CCOCC2)c(S(=O)(=O)Nc2ccc(Cl)cc2)c1
IC50 [1]: > 80 µM (inactive)

N#Cc1c(NC(=O)CSc2nc(-c3ccco3)cc(C(F)(F)F)n2)sc2c1CCCC2
CC50 [2]: > 40 µM (active)

O=C1NC(=O)C(=Cc2ccc(-c3ccccc3[N+](=O)[O-])o2)C(=O)N1
IC50 (Large T antigen): 62.2 µM (active)
IC50 [1]: > 80 µM (inactive)
IC50 (Genome polyprotein): 17.8 µM (active)

CCCCOC1CC(c2ccc(OCc3ccc(OC)cc3)c(OC)c2)N(C)O1 (centres undefined)
IC50 [10]: 15.4 µM (active)
EC50 [11]: > 53 µM (inactive)
IC50 [12]: > 20 µM (inactive)

O=C1CC(c2ccc(Cl)cc2)SC(N(c2ccccc2)c2ccccc2)=N1 (centres undefined)
IC50 [10]: 13.8 µM (active)
EC50 [11]: > 53 µM (inactive)
IC50 [12]: 14.9 µM (active)

NC(Cc1ccc([N+](=O)[O-])cc1)=NOC(=O)c1ccc(Br)cc1
IC50 [12]: 9.44 µM (active)

CN(c1ccccc1)S(=O)(=O)c1ccc(Cl)c(C(=O)OCC(=O)NCc2ccco2)c1
IC50 [14]: 8.74 µM (active)

CCOc1ccc(NC(=O)c2ccc(NC(=O)c3ccc(NC(N)=O)cc3)cc2)cc1
IC50 [14]: 3.89 µM (active)

CC(Cl)=CCn1c(NCCc2ccccc2)nc2c1c(=O)n(C)c(=O)n2C
AC50 [7]: 58.8 µM (active)
AC50 [8]: 0.974 µM (active)
AC50 [15]: 33.4 µM (active)
AC50 [16]: 3.67 µM (active)

CCc1c(CNc2ccc(C(=O)NC(CC(=O)O)C(=O)O)cc2)ccc2nc(N)nc(N)c12 (centres undefined)
GI50 (P388/ADR): 0.0179 µM (active)
GI50 (SN12K1): < 0.0202 µM (active)
GI50 (P388): < 0.0144 µM (active)

CNC(=O)c1cccc2c(Nc3ccc(NS(C)(=O)=O)cc3OC)c3cccc(C)c3nc12
GI50 (P388/ADR): 0.0488 µM (active)
GI50 (SN12K1): < 0.01 µM (active)
GI50 (P388): < 0.01 µM (active)

Cc1nc2ccccc2c(=O)n1CC(=O)O
GI50 (P388/ADR): > 100 µM (inactive)
GI50 (SN12K1): > 100 µM (inactive)
GI50 (P388): > 100 µM (inactive)

Nc1ccc2c(c1)C1=NNC(=O)CC1C2 (centres undefined)
GI50 (P388/ADR): > 100 µM (inactive)
GI50 (SN12K1): > 100 µM (inactive)
GI50 (P388): > 100 µM (inactive)

O=C(C[C@@H]1CC[C@H]2[C@@H](COC[C@H](O)CN2Cc2cccc(C(F)(F)F)c2)O1)NCc1ccc(Cl)cc1
AC50 [15]: 4.85 µM (active)
AC50 [16]: 10.9 µM (active)

C[C@H](C(=O)N(C)C[C@@H]1OCc2ccccc2-c2ccccc2C(=O)N([C@@H](C)CO)C[C@H]1C)c1ccccc1
AC50 [15]: 1.23 µM (active)
AC50 [16]: 8.04 µM (active)

COc1ccccc1NC(=O)N[C@@H]1C=C[C@H](CC(=O)NCc2ccc(Cl)c(Cl)c2)O[C@@H]1CO
AC50 [15]: 14.6 µM (active)
AC50 [16]: 43 µM (active)

C=C1CC(OC)(C(OC)C(=O)N[C@H]2OCO[C@H]3C2O[C@H](C[C@@H](COC)OC)C(C)(C)C3OC)O[C@H](C)[C@@H]1C (some centres undefined)
GI50 (P388/ADR): 0.57 µM (active)
GI50 (SN12K1): 1.06 µM (active)
GI50 (P388): 0.147 µM (active)

Cc1ccc(-c2c(C(=O)N/N=C/c3ccsc3)nnn2-c2nonc2N)cc1
IC50 [1]: > 80 µM (inactive)

C/C(N)=C(/C#N)C(=O)COC(=O)c1cc(-c2cccc(Br)c2)nc2ccccc12
CC50 [9]: 12.2 µM (active)

O=C(O/N=C/c1ccc2c(c1)OCO2)c1ccc([N+](=O)[O-])cc1
IC50 [17]: 16 µM (not active)
IC50 (cells): 8.31 µM (active)

CC(=O)O[C@H]1CC[C@@]2(C)[C@H](CC[C@@H]3[C@@H]2CC[C@]2(C)[C@@H](c4ccc(=O)oc4)C[C@H]4O[C@]342)C1
GI50 (P388/ADR): 40.9 µM (inactive)
GI50 (SN12K1): 0.426 µM (active)
GI50 (P388): 11 µM (inactive)

Nc1nc(N)c2cc(Sc3cccc(C(F)(F)F)c3)ccc2n1 [WR-159412]
AC50 [6]: 4.87 µM (active)
AC50 [7]: 2.34 µM (active)
AC50 [8]: 19.7 µM (active)
